Experimental data from the NIST ThermoML archive (doi:10.1021/je9005618).

Assay: xn = mol fraction of the nth substance listed
Conditions: 101 kPa, Liquid

CCn1cc[n+](C)c1.O=S(=O)([O-])C(F)(F)F [1-ethyl-3-methylimidazolium trifluoromethanesulfonate] + CC(C)=O
Conditions | mass density, 278.15 K [kg/m3] | mass density, 288.15 K [kg/m3] | mass density, 298.15 K [kg/m3] | mass density, 308.15 K [kg/m3] | mass density, 318.15 K [kg/m3] | speed of sound, 278.15 K [m/s] | speed of sound, 288.15 K [m/s] | speed of sound, 298.15 K [m/s] | speed of sound, 308.15 K [m/s] | speed of sound, 318.15 K [m/s]
x1 = 0.05 | 887.53 | 876.86 | 866.08 | 855.21 | 844.23 | 1280.3 | 1233.3 | 1191.1 | 1149.9 | 1109.3
x1 = 0.0999 | 953.96 | 943.44 | 932.87 | 922.28 | 911.64 | 1299.7 | 1253.5 | 1214.3 | 1176 | 1138.2
x1 = 0.1501 | 1010.97 | 1000.75 | 990.52 | 980.27 | 969.97 | 1313.5 | 1273.1 | 1236.6 | 1200.8 | 1165.4
x1 = 0.2004 | 1060.17 | 1050.21 | 1040.29 | 1030.37 | 1020.44 | 1327.8 | 1291.8 | 1257.5 | 1223.7 | 1190.4
x1 = 0.2988 | 1138.02 | 1128.31 | 1118.66 | 1109.04 | 1099.45 | 1356.4 | 1324.7 | 1293.5 | 1262.9 | 1232.8
x1 = 0.4007 | 1201.1 | 1191.78 | 1182.49 | 1173.23 | 1164.02 | 1382.4 | 1353 | 1324.3 | 1296.1 | 1268.4
x1 = 0.5006 | 1250.85 | 1241.69 | 1232.59 | 1223.54 | 1214.55 | 1404.5 | 1376.7 | 1349.7 | 1323 | 1297.1
x1 = 0.6007 | 1291.81 | 1282.81 | 1273.89 | 1265.02 | 1256.22 | 1423.5 | 1397.2 | 1371.6 | 1346.5 | 1322
x1 = 0.7014 | 1326.9 | 1318.05 | 1309.28 | 1300.58 | 1291.94 | 1441 | 1415.8 | 1391.3 | 1367.3 | 1343.8
x1 = 0.7998 | 1354.5 | 1345.77 | 1337.12 | 1328.53 | 1320.01 | 1455.6 | 1430.9 | 1407 | 1383.7 | 1361
x1 = 0.8435 | 1365.96 | 1357.29 | 1348.69 | 1340.15 | 1331.68 | 1462.5 | 1437.8 | 1414.3 | 1391.2 | 1368.7
x1 = 0.9006 | 1379.4 | 1370.81 | 1362.28 | 1353.81 | 1345.41 | 1469.4 | 1445.7 | 1422.5 | 1399.9 | 1377.7
x1 = 0.9489 | – | – | – | – | 1356.74 | – | – | – | – | 1384.7
x1 = 0.9501 | 1390.54 | 1382 | 1373.52 | 1365.09 | – | 1475.9 | 1452.1 | 1429.1 | 1406.7 | –

CCn1cc[n+](C)c1.O=S(=O)([O-])C(F)(F)F [1-ethyl-3-methylimidazolium trifluoromethanesulfonate] + CCOC(C)=O
Conditions | mass density [kg/m3] | speed of sound [m/s]
278.15 K, x1 = 0.0501 | 967.32 | 1238
278.15 K, x1 = 0.1003 | 1011.38 | 1249
278.15 K, x1 = 0.1502 | 1051.15 | 1263.8
278.15 K, x1 = 0.2004 | 1087.57 | 1280.5
278.15 K, x1 = 0.3002 | 1150.92 | 1313.9
278.15 K, x1 = 0.4002 | 1203.84 | 1343.7
278.15 K, x1 = 0.5002 | 1248.95 | 1371.2
278.15 K, x1 = 0.6009 | 1288.17 | 1397
278.15 K, x1 = 0.6999 | 1321.89 | 1420.5
278.15 K, x1 = 0.8006 | 1351.91 | 1442.8
278.15 K, x1 = 0.8492 | 1365.02 | 1453
278.15 K, x1 = 0.9008 | 1378.11 | 1463.2
278.15 K, x1 = 0.9501 | 1389.89 | 1472.6
288.15 K, x1 = 0.0501 | 955.66 | 1193.7
288.15 K, x1 = 0.1003 | 999.99 | 1206.1
288.15 K, x1 = 0.1502 | 1040.09 | 1222.8
288.15 K, x1 = 0.2004 | 1076.84 | 1241.5
288.15 K, x1 = 0.3002 | 1140.7 | 1278.8
288.15 K, x1 = 0.4002 | 1194.03 | 1311.7
288.15 K, x1 = 0.5002 | 1239.47 | 1341.6
288.15 K, x1 = 0.6009 | 1278.96 | 1369.4
288.15 K, x1 = 0.6999 | 1312.9 | 1394
288.15 K, x1 = 0.8006 | 1343.1 | 1417.9
288.15 K, x1 = 0.8492 | 1356.29 | 1428.6
288.15 K, x1 = 0.9008 | 1369.47 | 1439.3
288.15 K, x1 = 0.9501 | 1381.32 | 1449
298.15 K, x1 = 0.0501 | 943.87 | 1150
298.15 K, x1 = 0.1003 | 988.52 | 1163.9
298.15 K, x1 = 0.1502 | 1028.97 | 1182.5
298.15 K, x1 = 0.2004 | 1066.05 | 1203
298.15 K, x1 = 0.3002 | 1130.49 | 1244.2
298.15 K, x1 = 0.4002 | 1184.26 | 1280.4
298.15 K, x1 = 0.5002 | 1230.04 | 1312.7
298.15 K, x1 = 0.6009 | 1269.8 | 1342.4
298.15 K, x1 = 0.6999 | 1303.96 | 1369
298.15 K, x1 = 0.8006 | 1334.35 | 1393.7
298.15 K, x1 = 0.8492 | 1347.63 | 1404.8
298.15 K, x1 = 0.9008 | 1360.89 | 1416
298.15 K, x1 = 0.9501 | 1372.81 | 1426
308.15 K, x1 = 0.0501 | 931.96 | 1106.8
308.15 K, x1 = 0.1003 | 976.94 | 1121.8
308.15 K, x1 = 0.1502 | 1017.77 | 1142.2
308.15 K, x1 = 0.2004 | 1055.22 | 1165.1
308.15 K, x1 = 0.3002 | 1120.28 | 1210.2
308.15 K, x1 = 0.4002 | 1174.52 | 1249.5
308.15 K, x1 = 0.5002 | 1220.67 | 1284.4
308.15 K, x1 = 0.6009 | 1260.71 | 1316
308.15 K, x1 = 0.6999 | 1295.11 | 1344.2
308.15 K, x1 = 0.8006 | 1325.68 | 1370
308.15 K, x1 = 0.8492 | 1339.04 | 1381.6
308.15 K, x1 = 0.9008 | 1352.38 | 1393.2
308.15 K, x1 = 0.9501 | 1364.37 | 1403.6
318.15 K, x1 = 0.0501 | 919.88 | 1063.9
318.15 K, x1 = 0.1003 | 965.24 | 1080.1
318.15 K, x1 = 0.1502 | 1006.48 | 1102.3
318.15 K, x1 = 0.2004 | 1044.34 | 1127.3
318.15 K, x1 = 0.3002 | 1110.07 | 1176.5
318.15 K, x1 = 0.4002 | 1164.82 | 1219
318.15 K, x1 = 0.5002 | 1211.35 | 1256.6
318.15 K, x1 = 0.6009 | 1251.69 | 1290.1
318.15 K, x1 = 0.6999 | 1286.31 | 1319.8
318.15 K, x1 = 0.8006 | 1317.07 | 1346.8
318.15 K, x1 = 0.8492 | 1330.51 | 1358.8
318.15 K, x1 = 0.9008 | 1343.92 | 1370.8
318.15 K, x1 = 0.9501 | 1355.98 | 1381.6
328.15 K, x1 = 0.0501 | 907.62 | 1021.3
328.15 K, x1 = 0.1003 | 953.35 | 1039.2
328.15 K, x1 = 0.1502 | 995.07 | 1062.7
328.15 K, x1 = 0.2004 | 1033.39 | 1090
328.15 K, x1 = 0.3002 | 1099.87 | 1143.3
328.15 K, x1 = 0.4002 | 1155.15 | 1189.3
328.15 K, x1 = 0.5002 | 1202.08 | 1229.4
328.15 K, x1 = 0.6009 | 1242.72 | 1264.9
328.15 K, x1 = 0.6999 | 1277.58 | 1296
328.15 K, x1 = 0.8006 | 1308.52 | 1324.1
328.15 K, x1 = 0.8492 | 1322.04 | 1336.5
328.15 K, x1 = 0.9008 | 1335.52 | 1348.9
328.15 K, x1 = 0.9501 | 1347.65 | 1360.1
